Assay results: PMC10380841, “Synthesis, Characterization and Cytotoxic Evaluation of New Pyrrolo[1,2-b]pyridazines Obtained via Mesoionic Oxazolo-Pyridazinones” (International Journal of Molecular Sciences, 2023)
“Also recorded” adds a separate entry of the source. Read-outs that look alike come from different tables or passages of the source.

What was measured:
[1] = tested on: LoVo colon adenocarcinoma cells; test: MTS cytotoxicity assay, LoVo; type: cell-based, human
Procedure: (§1) Therefore, the precursor acids 2a–c and corresponding pyrrolo[1,2-b]pyridazines 5a–c,f were tested for their potential cytotoxic activity. During the assays, increasing concentrations of the compounds, ranging from […], were added for 24 h or 48 h to cancer LoVo, SK-OV-3, MCF-7, and the reference HUVEC cells, previously cultured for 24 h in 96-well flat bottom plates. […] Then, MTS reagent was added, and cells were incubated for 4 h at 37 °C in a 5% CO2 humidified atmosphere. The absorbance values were spectrophotometrically read to a Dynex ELISA reader at λ = […].
(§2) For the evaluation of the in vitro potential anti-proliferative effects of treatments with the new compounds under study against solid tumor-derived cells, several compound-mediated cytotoxicity assays were performed on three adherent tumor standardized cell lines, and normal human endothelial cells, used as control: the MCF-7 human breast adenocarcinoma and SK-OV-3 human ovary adenocarcinoma cell lines were provided from European Collection of Authenticated Cell Cultures (ECACC), while LoVo, human colorectal adenocarcinoma cell line, and HUVEC human umbilical vein endothelial cells were purchased from American Type Culture Collection (ATCC).
(§3) Adherent cells were cultivated in DMEM/F12 medium added with 2 mM L-glutamine and 10% fetal bovine serum, 100 units/mL penicillin, 100 µg/mL streptomycin (Sigma Aldrich, St. Louis, MO, USA) and incubated at 37 °C in 5% CO2 humidified atmosphere. The stock solutions for cell treatments were prepared by dissolving the synthesized compounds in a minimum amount of DMSO. Working dilutions were prepared from the stock solutions in culture medium before each treatment assay. After 24 h, when cell cultures achieved around 70% confluence, treatments were applied for various periods of time with different concentrations of synthesized compounds or oncolytic drugs, used as positive controls.
(§4) Therefore, cell cultures treated with the new compounds or oncolytic drugs for 24 h or 48 h were further subjected to a colorimetric cell viability method, the MTS assay. The absorbance of probes was read, data were calculated, and percentages of cell viability were assessed.
(§5) The evaluation of the compound-induced cytotoxicity was made using the CellTiter 96 Aqueous One Solution Cell Proliferation Assay (Promega, Madison, WI, USA), a reagent that contains both MTS (3-(4,5-dimethylthiazol-2-yl)-5-(3-carboxymethoxyphenyl)-2-(4-sulfophenyl)-2H-tetrazolium, inner salt) and PES ([…], a cationic dye with high chemical stability that binds to MTS and forms a stable solution).
(§6) Briefly, 1.5 × 10^4 cancer or normal cells were cultured in 100 µL/well for 24 h. After the culture supernatants were discarded, cells were treated for additional 24 h or 48 h with increasing concentrations of new compounds or oncolytic drugs. Following the specific treatments, in each well a volume of 20 µL of coloring mixture reagent of MTS and PES was added, and then the plates were incubated with mild agitation every 20 min for 4 h at 37 °C. The color developed during incubation was spectrophotometrically quantified at λ = 492 nm using a Dynex ELISA reader (DYNEX Technologies—MRS, Chantilly, VA, USA).
(§7) Data were expressed as percentages of cell viability of the treated cells, and were calculated and compared to the untreated cells (considered 100% viable), using the formula:Cell viability (%) = (T − B)/(U − B) × 100 where T = absorbance of treated cells, U = absorbance of untreated cells, and B = absorbance of culture medium (blank), for λ = 492 nm.
(§8) The cell viability data were expressed as the mean values ± standard deviations (SD) of three different experiments (n = 3). […] Moreover, a parallel experiment was performed in the absence of cells, with all the concentrations of the compounds being tested for their potential interference with MTS reagents; then, their absorbance values were extracted during calculations.

[2] = tested on: SK-OV-3 ovary adenocarcinoma cells; test: MTS cytotoxicity assay, SK-OV-3; type: cell-based, human
Procedure: as §1, §2, §3, §4, §5, §6, §7, §8

Triticum aestivum L. = test: Triticum test, phytotoxicity (main root length); type: in vivo; settings: Triticum aestivum, 72 h; Triticum root length, 10–1000 µM, measured over three days
Procedure: Phytobiological testing (Triticum test) was performed by the Constantinescu method which consists in determining the maximum active dilution of a compound. Depending on the duration of action, it can influence root elongation and the […] film. […] Embryonic wheat roots were obtained by germinating homogeneous wheat caryopses in Linhart pots. Then the caryopses with a main root length of 1 cm were placed in the test solutions. For the determination of the action of each compound, five dilutions in the concentration range of 10–1000 µM were obtained and 11 caryopses were placed in them. Petri dishes containing 15 mL of diluted solution were kept under constant conditions of temperature (25 °C), and humidity (60%), in the absence of light. […] The results were expressed in comparison with a 1% DMSO control.
Statistical analyses were performed using the computing and programming environment R, R, v. 4.2.1 [68], under Rstudio, v. 2022.07.2+576 “Spotted Wakerobin” for Windows (RStudio, PBC, Boston, 2022), both for the Triticum and Artemia tests. It used a parametric mixed-effects model (R package “lme4”) and a robust mixed-effects model (R package “robustlmm”), in which root length measurements (Triticum) from all three days were used as the dependent variable, whereas compound, concentration and time were treated as fixed effects, with time (day of measurement) also treated as a random effect. Assessing statistical significance for mixed-effects statistical models is controversial and complex, but as a pragmatic way of working, we have estimated p-values using the Kenward–Rogers approximation (R package “sjPlot”). A variety of R base functions and R packages were used to diagnose the regression models (“car” [72], “MASS” [73], and “gvlma” [74]). Mixed boxplot–dotplot plots were generated using the “ggplot2” package.
The “drc” R package was used to estimate IC50 values for the Triticum bioassay by nonlinear modeling. For Triticum, the relationship between root length and concentration was modeled using Weibull functions with 2, 3, or 4 parameters, depending on the data distribution, the models being selected from a range of several models with different functions and parameters, based on the Akaike’s information criterion (AIC).

[3] = tested on: Triticum vulgare root tips; test: Microscopic examination of Triticum root tips (mitotic film changes); type: in vivo; settings: 24 h contact
Procedure: Microscopic examination of Triticum vulgare root tips followed the mitotic film changes induced by the tested compounds. Observations were made after 24 h of contact of the caryopses with the test solutions. The study was made in comparison with DMSO control maintained under the same conditions as the samples. To obtain microscopic preparations, sectioning of wheat embryonic roots was carried out at about 5 mm from the tip and stained with dilute […] according to the La Cour procedure. The examination was conducted on a Euromex oxion series 110–240 V/50–60 Hz microscope with digital camera CEMEX 5 DC 5000 C and 40× and 100× lenses with cedar oil immersion (Sigma-Aldrich St. Louis, MO, USA).

Daphnia magna Straus = test: Daphnia magna toxicity assay; type: in vivo; settings: for toxicity on Daphnia magna / L% values (lethality): 48 h; for L% values (lethality): all tested concentrations
Procedure: (§9) Young organisms of Daphnia magna were selected according to their size from a parthenogenetic culture maintained in an artificial medium for 24 h before the bioassay. The determination was conducted in tissue culture plates with 12 wells (Greiner Bio-One, Monroe, NC, USA), with 10 organisms in each well, and a final volume of 3 mL per sample [65, 66]. As a negative control, DMSO was used at a concentration of 1%. All compounds were tested at six different concentration levels, ranging from 12.5 to 500 μg/mL. All assessments were performed in duplicate.

[4] = tested on: MCF-7 breast adenocarcinoma cells; test: MTS cytotoxicity assay, MCF-7; type: cell-based, human; settings: Homo sapiens, MCF7; for IC50: MCF-7, 48 h, read-out: IC50 MCF-7 48 h; for viability at 400 µM: MCF-7, 400 μM, 48 h, read-out: cell viability
Procedure: as §1, §2, §3, §4
as §5, with “solution). The assay is based on the ability of the metabolically active cells to reduce the yellow tetrazolium salt MTS to a compound that is soluble in culture medium, the colored formazan, followed by the spectrophotometric evaluation of its concentration.” for “solution).”
as §6, §7
The cell viability data were expressed as the mean values ± standard deviations (SD) of three different experiments (n = 3). […]

[5] = tested on: LoVo colon adenocarcinoma cells; test: MTS cytotoxicity assay, LoVo; type: cell-based; settings: Homo sapiens, read-out: cell viability
[6] = tested on: SK-OV-3 ovary adenocarcinoma cells; test: MTS cytotoxicity assay, SK-OV-3; type: cell-based; settings: Homo sapiens; SK-OV-3, 400 μM, 24 h; read-out: cell viability
[7] = Daphnia magna toxicity assay; type: in vivo; settings: Daphnia magna, in vivo; 48 h
Procedure: as §9

[8] = Homo sapiens, 24 h, read-out: IC50 LoVo 24 h
[9] = Homo sapiens, 48 h, read-out: IC50 LoVo 48 h
[10] = Homo sapiens, SK-OV-3, 24 h, read-out: IC50 Sk-OV-3 24 h
[11] = Homo sapiens, SK-OV-3, 48 h, read-out: IC50 Sk-OV-3 48 h

SMILES | IC50 (Triticum aestivum L.) [µM] | mitotic film / cell changes in root tips ([3]; 1000 μM) | toxicity on Daphnia magna (Daphnia magna Straus) | L% values (lethality) (Daphnia magna Straus) | IC50 [1, 8] [µM] | IC50 [1, 9] [µM] | IC50 [4] [µM] | IC50 [2, 10] [µM] | IC50 [2, 11] [µM] | viability at 400 µM ([5]; 24 h) [%] | viability at 400 µM ([5]; 48 h) [%] | viability at 400 µM [6] [%] | LC50 at 48 h [7] [µM] | viability at 100 µM ([5]; 48 h) [%] | viability at 400 µM [4] [%] | also measured
N.N.[Cl][Pt][Cl] [CisPt, cisplatin, reference compound] |  |  |  |  |  |  |  |  |  |  |  |  |  |  |  | IC50 ([1]; 24 h, read-out: IC50 LoVo 24 h): 79.1 ± 4.75 µM; IC50 ([1]; 48 h, read-out: IC50 LoVo 48 h): 57 ± 0.95 µM; IC50 ([2]; SK-OV-3, 24 h, read-out: IC50 Sk-OV-3 24 h): 92.2 ± 3.45 µM; IC50 ([2]; SK-OV-3, 48 h, read-out: IC50 Sk-OV-3 48 h): 78.2 ± 4.01 µM
CCC(C(=O)O)n1nc(-c2ccc(F)cc2)ccc1=O (centres unmarked) [Compound 2b, 2-[6-Oxo-3-(4-fluorophenyl)pyridazin-1-yl]butanoic acid] | 204 | Mitoinhibition and cells with 1-3 nucleoli | no toxicity | ND * (all L% values were lower than 30%) | ≥ 400 | ≥ 400 | ≥ 400 | ≥ 400 | ≥ 400 | 91 | 81.1 |  |  |  |  | 
CCC(C(=O)O)n1nc(-c2ccc(Cl)cc2)ccc1=O (centres unmarked) [Compound 2c, 2-[6-Oxo-3-(4-chlorophenyl)pyridazin-1-yl]butanoic acid] | 553 | disorganized metaphase | no toxicity | ND * (all L% values were lower than 30%) | ≥ 400 | 367 ± 3.7 |  | ≥ 400 | ≥ 400 | 78.2 | 48.1 | 88.3 |  |  |  | 
CCc1cc(C(=O)OC)c2ccc(-c3ccccc3)nn12 [Compound 5a, Methyl 7-ethyl-2-phenylpyrrolo[1,2-b]pyridazine-5-carboxylate] |  | telophase with delayed chromosome, wavy cell walls; also recorded: no mitoinhibitory effect |  |  | ≥ 400 | 304 ± 4.85 |  |  |  | 63.5 | 48.5 |  | 46.1 | 58.2 |  | mitotic film / cell changes in root tips ([3]; 100 µM): bridged telophase, disorganized metaphase; maximum lethality (L%) (Daphnia magna Straus; 24 h): 40%; viability at 50 µM ([5]; 24 h): 79%; viability at 50 µM ([5]; 48 h): 65.3%; viability at 100 µM ([5]; 24 h): 78.1%; viability at 200 µM ([5]; 200 μM, 48 h): 52.5%
CCc1cc(C(=O)OC)c2ccc(-c3ccc(F)cc3)nn12 [Compound 5b, Methyl 7-ethyl-2-(4-fluorophenyl)pyrrolo[1,2-b]pyridazine-5-carboxylate] |  | telophase in tropokinesis, normal, or disorganized metaphase | moderate toxicity |  | ≥ 400 | ≥ 400 | ≥ 400 | ≥ 400 | ≥ 400 | 87.8 | 60.3 | 78 | 463 | 79.4 | 89.7 | 
CCc1cc(C(=O)OC)c2ccc(-c3ccc(Cl)cc3)nn12 [Compound 5c, Methyl 2-(4-chlorophenyl)-7-ethylpyrrolo[1,2-b]pyridazine-5-carboxylate] |  |  |  | ND ** (all L% values were in range of 30 to 70%, independent of concentration) | ≥ 400 | ≥ 400 | ≥ 400 | ≥ 400 | ≥ 400 | 68.6 | 61.1 |  | ~107 |  | 88.5 | 
